# Measured values from PubChem BioAssay AID602210 (Sanford-Burnham Center for Chemical Genomics, 2012).
# Activity calls are given as the source filed them. No rule for the calls is given here.
# Experiment: modulators of 2-deoxyglucose-induced H9c2 death, dose response, myocardial damage modulator project, cell-based, ATPlite luminescence, rat, set 2 (AID 602210)
# Details: H9c2 rat cardiomyoblasts, 2-deoxyglucose-induced death, 2 h
row,SMILES,IC50
1,CCOCc1c(C(=O)NC2=Nc3ccccc3NC(CC)=C2C(=O)OCC)oc2ccccc12,4.85 µM
2,COc1ccccc1-c1cc(NC(C)=O)c2ncc(-c3cccc(C(C)=O)c3)n2c1,> 79 µM (inactive)
3,CCCOc1ccc2[nH]c(C(=O)N/N=C/c3cc(OC)c(OC)c(OC)c3)cc2c1,> 79 µM (inactive)
4,O=C(Nc1ccccc1)c1nc[nH]c1C(=O)NCCCCNC(=O)c1[nH]cnc1C(=O)Nc1ccccc1,4.11 µM
5,CC(OC(=O)c1cc(-c2cccnc2)nc2ccccc12)C(=O)Nc1ccc2ccccc2c1 (stereo not given),14.3 µM (inactive)
6,O=C(CN1CCN(c2ccccn2)CC1)Nc1ccc([N+](=O)[O-])cc1C(=O)Nc1ccccc1F,12.8 µM (inactive)
7,O=C1N[C@H](Cc2ccccc2)COC(=O)[C@@H](Cc2ccc(F)cc2)C/C=C\C[C@H]1CC(=O)N(CCO)Cc1ccccc1,19.3 µM (inactive)
8,O=C(Nc1nc(-c2ccccn2)cs1)c1ccc(-c2ccccc2F)o1,> 79 µM (inactive)
9,CC(=O)c1ccc(N2CCN(C(=O)c3cc(-c4cccnc4)nc4ccc(Br)cc34)CC2)cc1,15.7 µM (inactive)
10,COc1ccc2c(c1OC)C(=O)N1c3ccccc3C(=O)N(c3ccccc3)C21 (stereo not given),8.7 µM
11,C[C@@H](NC(=O)c1nc[nH]c1C(=O)NCC(=O)OCc1ccccc1)c1ccccc1,9.89 µM
12,CC(=O)c1cccc(Nc2nc3ccccc3n3cnnc23)c1,8.67 µM
13,O=C(NCCN1CCOCC1)c1cnn2c(-c3ccccc3)cc(-c3ccccc3)nc12,30.8 µM (inactive)
14,CCC(C)N1C(=O)S/C(=C/c2ccc3c(c2)n(C)c(=O)n3C)C1=O (stereo not given),> 79 µM (inactive)
15,O=C(Nc1cccnc1)c1sc(Nc2ccccc2)nc1-c1ccccc1,> 79 µM (inactive)
16,COc1ccc(-c2cc(NC(C)=O)c3ncc(-c4cccc(C(C)=O)c4)n3c2)cc1OC,8.06 µM
17,O=C(c1cc(=O)[nH]c2ccccc12)N1CCN(S(=O)(=O)c2ccc(Cl)cc2)CC1,7.15 µM
18,CCOC(=O)c1nn(-c2cccc(OC)c2)c2nc(Nc3ccccc3)cc(=O)n12,> 79 µM (inactive)
19,CCOC(=O)c1nc(Nc2ccc(C(=O)OC)cc2)c2ccccc2n1,> 79 µM (inactive)
20,COc1ccc(-c2cc(C(=O)N(C)Cc3nc4ccccc4c(=O)[nH]3)c3ccccc3n2)cc1OC,10.3 µM (inactive)
21,COc1ccc(-c2cc(C(=O)NNC(=O)c3csc(N4CCOCC4)n3)c3ccccc3n2)cc1,7.31 µM
22,CC(C)C1Nc2ccc(C(=O)N3CCN(c4ccccn4)CC3)cc2NC1=O (stereo not given),> 79 µM (inactive)
23,CC(=O)c1ccc(N2CCN(C(=O)C3CCCN(c4ncnc5c4nc4n5CCCCC4)C3)CC2)cc1 (stereo not given),25.6 µM (inactive)

row,SMILES,IC50
1,Cc1ccc(-c2nnc3ccc(SCC(=O)N4CCCc5ccccc54)nn23)cc1,14 µM (inactive)
2,COc1cccc(Nc2nc3ccccc3n3cnnc23)c1,17.5 µM (inactive)
3,O=C(CNC(=O)c1[nH]cnc1C(=O)NC(c1ccccc1)c1ccccc1)OCc1ccccc1,22.3 µM (inactive)
4,CCOC(=O)C1=C(COC(=O)/C=C/c2ccc(F)cc2)NC(=O)NC1C (stereo not given),18.1 µM (inactive)
5,CC(C)C(=O)N1CCN(c2ccc(NC(=O)COc3ccccc3[N+](=O)[O-])cc2)CC1,5.55 µM
6,O=C(NCCc1c[nH]c2ccccc12)C(=O)NCC(c1ccco1)N1CCN(c2ccccc2F)CC1 (stereo not given),> 79 µM (inactive)
7,NS(=O)(=O)c1ccc(CCNc2ccn3nc(-c4ccc(OCCN5CCOCC5)cc4)cc3n2)cc1,45.8 µM (inactive)
8,Cc1c(OCC(=O)NCCN2CCOCC2)ccc2c1oc(=O)c1ccccc12,17.1 µM (inactive)
9,CCn1nc(C(=O)Nc2nc(-c3ccccn3)cs2)c2ccccc2c1=O,6.65 µM
10,O=C(Nc1ccc2nc(N3CCOCC3)sc2c1)c1cc2ccccc2o1,> 79 µM (inactive)
11,COc1cc(NC(=O)c2cccc3c(-c4cnn(C)c4)coc23)cc(OC)c1OC,> 79 µM (inactive)
12,CCCC(=O)Nc1nc2ccc(NC(=O)c3ccc(Br)o3)cc2s1,> 79 µM (inactive)
13,CCOC(=O)C1CCN(c2cc3c(cc2NC(=O)c2ccc(F)cc2)n(C)c(=O)n3C)CC1,28.5 µM (inactive)
14,COc1ccc(NC(=O)c2cc(-c3ccccn3)nc3ccccc23)cc1S(=O)(=O)N(C)C,5.87 µM
15,COc1cc(/C=C/C(=O)Nc2ccc3nc4n(c(=O)c3c2)CCCC4)cc(OC)c1OC,20.6 µM (inactive)
16,CC(C)=NNc1cnnc2ccc([N+](=O)[O-])cc12,13.4 µM (inactive)
17,O=C(CSc1nnc(Cc2cccs2)n1CCc1ccccc1)N1CCCc2ccccc21,13.9 µM (inactive)
18,CCOC(=O)c1cc(-c2nnc(-c3cc(OC)c(OC)c(OC)c3)o2)c(C)nc1C,3.44 µM
19,CCOc1cc(/C=C/c2ccc3cccc([N+](=O)[O-])c3n2)ccc1OCC(=O)N(C)C,18.3 µM (inactive)
20,CCOCCn1ccc2c(OCC(=O)Nc3cc(OC)ccc3OC)cccc2c1=O,> 79 µM (inactive)
21,COc1cc(-c2cc(NC(C)=O)c3ncc(-c4ccccc4)n3c2)cc(OC)c1OC,> 79 µM (inactive)
22,CCOC(=O)C1=C(C)NC(C)=C(C(=O)OCC)C1C(=O)OCC(=O)NC(C)C,25.1 µM (inactive)
